For orientation: Emax means the greatest response seen or fitted, relative to the assay's reference. The term EC50 denotes the midpoint of the concentration-response curve.

Data on 13 molecules can be found in ChEMBL document CHEMBL5131517 (ACS Med Chem Lett, 2022).

The target of data set [1] is T1, 5-hydroxytryptamine receptor 2A (Homo sapiens, UniProt P28223). The data set is described as follows: Agonist activity at human 5HT2A receptor stably expressed in Flp-In-T-REx-293 cells assessed as maximal Gq-mediated calcium flux by Fluo-4 direct dye based FLIPR Tetra assay relative to control. It is filed as functional, cell-based. In general terms: A change in cytosolic calcium serves as a functional read-out for many receptors and channels.

Data set [2] concerns the target T2, 5-hydroxytryptamine receptor 2B (Homo sapiens, UniProt P41595). The data set is described as follows: Agonist activity at human 5HT2B receptor stably expressed in Flp-In-T-REx-293 cells assessed as increase in Gq-mediated calcium flux by Fluo-4 direct dye based FLIPR Tetra assay. Format: functional, cell-based. To be noted: read-out: EC50.
In data set [3] the target is T3, 5-hydroxytryptamine receptor 2C (Homo sapiens, UniProt P28335).
T3 sequence (P28335 whole entry): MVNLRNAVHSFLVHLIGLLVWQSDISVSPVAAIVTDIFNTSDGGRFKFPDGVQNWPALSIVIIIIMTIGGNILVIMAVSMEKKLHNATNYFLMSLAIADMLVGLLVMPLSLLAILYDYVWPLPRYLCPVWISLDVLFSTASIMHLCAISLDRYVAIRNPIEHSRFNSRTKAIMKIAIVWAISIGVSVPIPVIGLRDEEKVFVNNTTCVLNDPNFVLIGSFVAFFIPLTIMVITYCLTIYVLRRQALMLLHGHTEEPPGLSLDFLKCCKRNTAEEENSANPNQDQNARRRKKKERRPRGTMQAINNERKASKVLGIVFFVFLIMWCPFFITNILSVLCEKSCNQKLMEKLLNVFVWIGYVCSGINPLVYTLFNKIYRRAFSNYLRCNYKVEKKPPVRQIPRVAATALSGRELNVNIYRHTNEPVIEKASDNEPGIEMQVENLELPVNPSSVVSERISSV
The data set is described as follows: Agonist activity at human 5HT2C receptor stably expressed in Flp-In-T-REx-293 cells assessed as increase in Gq-mediated calcium flux by Fluo-4 direct dye based FLIPR Tetra assay. It is filed as functional, cell-based. The following applies: read-out: EC50.

Data set [4] deals with T1, 5-hydroxytryptamine receptor 2A. The data set is described as follows: Agonist activity at human 5HT2A receptor stably expressed in Flp-In-T-REx-293 cells assessed as increase in Gq-mediated calcium flux by Fluo-4 direct dye based FLIPR Tetra assay. Format: functional, cell-based.
The target in data set [5] is T2, 5-hydroxytryptamine receptor 2B. In words: Agonist activity at human 5HT2B receptor stably expressed in Flp-In-T-REx-293 cells assessed as maximal Gq-mediated calcium flux by Fluo-4 direct dye based FLIPR Tetra assay relative to control. It is filed as functional, cell-based. The following applies: filed as agonist.
In data set [6] the target is T4, 5-hydroxytryptamine receptor 2C (Homo sapiens) (UniProt P28335).
T4 sequence (whole entry): T3 sequence (P28335 whole entry)
In words: Agonist activity at human 5HT2C receptor stably expressed in Flp-In-T-REx-293 cells assessed as maximal Gq-mediated calcium flux by Fluo-4 direct dye based FLIPR Tetra assay relative to control. Format: functional, cell-based. The following applies: filed as agonist.

Data set [7] in a line: Drug metabolism in BALB/c mouse liver microsome S9 fraction assessed as [M+16] metabolite formation prewarmed for 5 mins followed by NADPH addition measured over 1 hrs by LCMS analysis. It is filed as ADME. The following applies: microsomes, 1.083 h, time 65 min. (Microsomes from liver hold many membrane-bound enzymes, among them those of drug oxidation.)

T1 sequence (P28223 whole entry): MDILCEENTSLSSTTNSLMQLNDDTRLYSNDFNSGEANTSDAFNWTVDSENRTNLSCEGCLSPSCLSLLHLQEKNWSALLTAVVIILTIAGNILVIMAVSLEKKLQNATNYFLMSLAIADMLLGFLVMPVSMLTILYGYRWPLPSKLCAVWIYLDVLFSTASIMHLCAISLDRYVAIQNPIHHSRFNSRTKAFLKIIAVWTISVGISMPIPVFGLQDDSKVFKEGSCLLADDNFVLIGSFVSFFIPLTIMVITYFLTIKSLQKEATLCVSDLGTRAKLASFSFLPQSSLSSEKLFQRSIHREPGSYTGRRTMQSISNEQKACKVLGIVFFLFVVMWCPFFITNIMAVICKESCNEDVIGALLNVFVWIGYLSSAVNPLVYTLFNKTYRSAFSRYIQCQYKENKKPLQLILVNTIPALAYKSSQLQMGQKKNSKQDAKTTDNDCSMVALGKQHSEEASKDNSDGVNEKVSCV
T2 sequence (P41595 whole entry): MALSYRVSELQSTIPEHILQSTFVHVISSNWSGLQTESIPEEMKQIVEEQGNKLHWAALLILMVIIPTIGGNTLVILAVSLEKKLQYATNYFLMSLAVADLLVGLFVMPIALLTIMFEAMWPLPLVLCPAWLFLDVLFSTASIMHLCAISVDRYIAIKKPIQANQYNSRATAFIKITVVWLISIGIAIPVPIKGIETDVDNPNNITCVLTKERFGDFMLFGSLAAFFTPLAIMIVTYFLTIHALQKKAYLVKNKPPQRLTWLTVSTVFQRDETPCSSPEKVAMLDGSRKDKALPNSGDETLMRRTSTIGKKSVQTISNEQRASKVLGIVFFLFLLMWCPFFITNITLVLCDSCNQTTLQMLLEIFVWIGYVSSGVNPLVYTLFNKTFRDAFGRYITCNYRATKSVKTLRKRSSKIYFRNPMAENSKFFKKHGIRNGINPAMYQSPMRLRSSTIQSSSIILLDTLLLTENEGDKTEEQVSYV

As to `Oc1cc(Br)ccc1C1NCCc2c1[nH]c1ccc(Cl)cc21` (stereo not drawn), the Emax was 94.5% in data set [1] (filed as agonist), 106% in data set [5] and 107% in data set [6]. The results for the half-maximal effective concentration (EC50) in data set [2], in data set [3] and in data set [4] were 204 nM, 794 nM and 537 nM, respectively.
With `Oc1c(Cl)cccc1C1NCCc2c1[nH]c1ccc(Cl)cc21` (stereo not drawn), the results for the Emax in data set [1] (filed as agonist), in data set [5] and in data set [6] were 70.1%, 95.9% and 94%, respectively. The EC50 in data set [2] came out at 106 nM; in data set [3], 176 nM; in data set [4], 336 nM.
On to RAUWOLFIA SERPENTINA, for which the Drug metabolism result in data set [7] is “Metabolite_Detected”.
As for `COc1ccc(C2NCCc3c2[nH]c2ccc(F)cc32)c(OC)c1` (stereo not drawn), the values for the Emax in data set [1] (filed as agonist), in data set [5] and in data set [6] were 45.6%, 91.3% and 100%, respectively. The EC50 in data set [2] is 98 nM; in data set [3], 159 nM; in data set [4] it was 167 nM.
For `Oc1ccc(O)c(C2NCCc3c2[nH]c2ccc(F)cc32)c1` (stereo not drawn), the results for the Emax in data set [1] (filed as agonist), in data set [5] and in data set [6] were 95.2%, 102% and 120%, respectively. The EC50 is 25 nM in data set [2], 42 nM in data set [3] and 72 nM in data set [4].
On to `Cc1ccc(O)c(C2NCCc3c2[nH]c2ccc(F)cc32)c1` (stereo not drawn), for which the values for the Emax in data set [1], in data set [5] and in data set [6] were 36.8%, 115% and 99.2%, respectively. The EC50 stood at 316 nM in data set [2], 446 nM in data set [3] and 1230 nM in data set [4].
Take `COc1ccc(C2NCCc3c2[nH]c2ccc(F)cc32)cc1OC` (stereo not drawn): the Emax in data set [1] (filed as agonist) is 83.2%; in data set [5] it was 89.8%; in data set [6], 103%. The 50% effective concentration (EC50) in data set [2] stood at 102 nM; in data set [3] it was 152 nM; in data set [4], 254 nM.
For the molecule `Oc1ccc(Br)cc1C1NCCc2c1[nH]c1ccc(F)cc21` (stereo not drawn), the results for the Emax in data set [1] (filed as agonist), in data set [5] and in data set [6] were 80.8%, 111% and 101%, respectively. In addition, the EC50 amounted to 338 nM in data set [2], 376 nM in data set [3] and 1110 nM in data set [4].
In the case of `Oc1c(Cl)cccc1C1NCCc2c1[nH]c1ccc(F)cc21` (stereo not drawn), the Emax turned out to be 65.3% in data set [1] (filed as agonist), 96.2% in data set [5] and 99.2% in data set [6]. For the same molecule, the EC50 stood at 88 nM in data set [2], 78 nM in data set [3] and 273 nM in data set [4].
Take `Oc1cc(Cl)ccc1C1NCCc2c1[nH]c1ccc(Cl)cc21` (stereo not drawn): the Emax is 98.5% in data set [1] (filed as agonist), 109% in data set [5] and 102% in data set [6]. Further, the EC50 was determined as 25 nM in data set [2], 47 nM in data set [3] and 52 nM in data set [4].
With `Cc1ccc(C2NCCc3c2[nH]c2ccc(F)cc32)c(C)c1` (stereo not drawn), the results for the maximum response (Emax) in data set [1] (filed as agonist), in data set [5] and in data set [6] were 47.8%, 107% and 104%, respectively. Besides, the EC50 in data set [2] was determined as 537 nM; in data set [3], 159 nM; in data set [4], 363 nM.
Regarding `Cc1ccc(C2NCCc3c2[nH]c2ccc(Cl)cc32)c(C)c1` (stereo not drawn), the Emax in data set [1] (filed as agonist) stood at 69.8%; in data set [5] it was 89.4%; in data set [6] it was 99.2%. The EC50 is 977 nM in data set [2], 407 nM in data set [3] and 562 nM in data set [4].
With `COc1ccc(C2NCCc3c2[nH]c2ccc(Cl)cc32)cc1OC` (stereo not drawn), the Emax in data set [1] (filed as agonist) is 96%; in data set [5], 102%; in data set [6], 99.3%. Besides, the figures for the EC50 in data set [2], in data set [3] and in data set [4] were 34 nM, 123 nM and 81 nM, respectively.
